Active and inactive are the calls of the source. The rule behind the calls is not given here.

As a reminder, the CC50 is the concentration giving 50% cytotoxicity. Low values mean harm at low concentration, high ones better tolerance by the cells. The term IC50 denotes the concentration needed to halve the response being measured. Usually EC50 stands for the concentration needed to bring the measured effect to its halfway point. Lower therefore signals an effect from little substance.

Data set [1] has as its target Human immunodeficiency virus type 1 integrase (Human immunodeficiency virus 1) (UniProt Q7ZJM1). The data set can be described thus: Inhibition of HIV1 recombinant integrase in presence of manganese.
The subject of data set [2] is U-937. The data set can be described thus: Cytotoxicity against human U937 cells after 24 hrs by MTT assay. The conditions noted are these: u-937, 24 h.
For data set [3], the target named is T1, Human immunodeficiency virus type 1 integrase (Human immunodeficiency virus 1, UniProt Q7ZJM1). Description: Inhibition of recombinant HIV1 integrase strand transfer activity by gel-based assay in presence of magnesium.
T1 sequence (Q7ZJM1 whole entry): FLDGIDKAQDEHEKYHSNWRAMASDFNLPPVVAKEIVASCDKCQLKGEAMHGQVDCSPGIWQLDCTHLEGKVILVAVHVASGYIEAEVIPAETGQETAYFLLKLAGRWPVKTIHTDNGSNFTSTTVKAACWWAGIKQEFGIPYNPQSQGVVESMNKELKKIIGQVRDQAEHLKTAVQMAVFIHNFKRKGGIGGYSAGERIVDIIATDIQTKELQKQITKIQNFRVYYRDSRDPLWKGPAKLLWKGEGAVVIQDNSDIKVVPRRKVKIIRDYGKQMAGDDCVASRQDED
Data set [4] concerns the target T1, Human immunodeficiency virus type 1 integrase. The data set can be described thus: Inhibition of recombinant HIV1 integrase 3'-end processing activity by gel-based assay in presence of magnesium.
Data set [5] shares this target.
Description: Inhibition of recombinant HIV1 integrase strand transfer activity by high throughput electrochemiluminescent assay in presence of magnesium
In data set [6] the test system is Human immunodeficiency virus 1. The data set can be described thus: Antiviral activity against HIV1-infected in human H9/HTLV 3B cells after 4 days. In kind it is functional, organism-based. The conditions noted are these: Human immunodeficiency virus 1, 96 h.

Human immunodeficiency virus type 1 integrase (Human immunodeficiency virus 1), sequence (Q7ZJM1 as listed by the source): as the sequence (Q7ZJM1 whole entry) above

Turning to `O=C(O)/C(O)=C/C(=O)c1cn(Cc2ccc(F)cc2)c2ccc(Cl)cc2c1=O`, the result in data set [1] was Active. The molecule also yielded a CC50 in data set [2] of more than 200 µM. For the same molecule, the IC50 in data set [3] was 0.4 µM; in data set [4], 6.4 µM; in data set [5], 0.028 µM.

With `CCOC(=O)/C(O)=C/C(=O)c1cn(Cc2ccc(F)cc2)c2cc(N3CCCC3)ccc2c1=O`, the result in data set [1] was Active. In data set [2], this molecule returned a 50% cytotoxic concentration (CC50) of more than 200 µM. Besides, the IC50 in data set [3] was determined as 2.7 µM; in data set [4], 110 µM; in data set [5] it was 2.3 µM.

Consider `CCOC(=O)/C(O)=C/C(=O)c1cn(Cc2ccc(F)cc2)c2cc(F)ccc2c1=O`, for which the result in data set [1] was Active. The molecule further yielded a CC50 in data set [2] of more than 200 µM. Also, the results for the IC50 in data set [3], in data set [4] and in data set [5] were 1.2 µM, more than 333 µM and 1.3 µM, respectively.

In data set [2], `O=C(O)/C(O)=C/C(=O)c1ccc2c(c1)c(=O)c(C(=O)/C=C(\O)C(=O)O)cn2Cc1ccc(F)cc1` had a half-maximal cytotoxic concentration (CC50) of more than 200 µM.

On to `CCOC(=O)/C(O)=C/C(=O)c1cn(Cc2ccc(F)cc2)c2ccc(F)cc2c1=O`, for which the outcome in data set [1] was Active. The molecule further displayed a 50% cytotoxic concentration (CC50) in data set [2] of more than 200 µM. In addition, the 50% inhibitory concentration (IC50) in data set [3] was 0.23 µM; in data set [4], more than 333 µM; in data set [5] it was 0.58 µM.

Regarding `O=C(O)/C(O)=C/C(=O)c1c[nH]c2ccc(Cl)cc2c1=O`, the figures for the 50% inhibitory concentration (IC50) in data set [3], in data set [4] and in data set [5] were 56 µM, 166 µM and more than 111 µM, respectively.

With `O=C(O)/C(O)=C/C(=O)c1cn(Cc2ccc(F)cc2)c2cc(Cl)ccc2c1=O`, the outcome in data set [1] was Active. The 50% cytotoxic concentration (CC50) in data set [2] is more than 200 µM. Also, the results for the concentration for half-maximal inhibition (IC50) in data set [3], in data set [4] and in data set [5] were 0.11 µM, 4 µM and 0.019 µM, respectively.

Consider `O=C(O)/C(O)=C/C(=O)c1cn(Cc2ccc(F)cc2)c2cc(Cl)c(Cl)cc2c1=O`, for which the result in data set [1] was Active. The molecule also displayed a CC50 in data set [2] of 156 µM. Besides, the values for the IC50 in data set [3], in data set [4] and in data set [5] were 0.075 µM, 11 µM and 0.033 µM, respectively.

`CCOC(=O)/C(O)=C/C(=O)c1cn(Cc2ccc(F)cc2)c2cc(Cl)ccc2c1=O`: in data set [1], the outcome was Active. In addition, the IC50 in data set [3] is 3.6 µM; in data set [4], more than 333 µM; in data set [5], 14 µM.

For the molecule `O=C(O)/C(O)=C/C(=O)c1cn(Cc2ccc(F)cc2)c2ccc(F)cc2c1=O`, the outcome in data set [1] was Active. The molecule also had a CC50 in data set [2] of more than 200 µM. Also, in data set [4], the IC50 amounted to 2.3 µM.

For the molecule `CCOC(=O)/C(O)=C/C(=O)c1cn(Cc2ccc(F)cc2)c2cc(Cl)c(Cl)cc2c1=O`, in data set [1], the result was Active. In data set [2], this molecule had a CC50 of 72 µM. Further, the IC50 in data set [3] amounted to 1.8 µM; in data set [4], 135 µM; in data set [5], 3.9 µM.

`CCOC(=O)/C(O)=C/C(=O)c1cn(Cc2ccc(F)cc2)c2ccccc2c1=O`: the result in data set [1] was Active. The cytotoxic concentration (CC50) in data set [2] stood at 99 µM. The figures for the IC50 in data set [3], in data set [4] and in data set [5] were 0.44 µM, 135 µM and 0.67 µM, respectively.

Turning to `CCOC(=O)/C(O)=C/C(=O)c1c[nH]c2ccc(Cl)cc2c1=O`, the concentration for half-maximal inhibition (IC50) in data set [3] came to 2.1 µM; in data set [4] it was 120 µM; in data set [5] it was 3.3 µM.

For `CCOC(=O)/C(O)=C/C(=O)c1cn(Cc2ccc(F)cc2)c2ccc(Cl)cc2c1=O`, in data set [1], the outcome was Active. The IC50 in data set [3] is 3 µM; in data set [4], more than 333 µM; in data set [5] it was 21 µM.

On to `CCOC(=O)/C(O)=C/C(=O)c1c[nH]c2cc(Cl)ccc2c1=O`, for which the IC50 in data set [3] was 224 µM; in data set [4], more than 333 µM; in data set [5], more than 111 µM.

Consider `O=C(O)/C(O)=C/C(=O)c1cn(Cc2ccc(F)cc2)c2c(Cl)cccc2c1=O`, for which, in data set [1], the result was Active. The molecule also yielded a CC50 in data set [2] of more than 200 µM. In addition, the IC50 in data set [3] came out at 0.51 µM; in data set [4], 44 µM.

`O=C(O)/C(O)=C/C(=O)c1cn(Cc2ccc(F)cc2)c2cc(N3CCCC3)ccc2c1=O`: the outcome in data set [1] was Active. Also, the CC50 in data set [2] is more than 200 µM. Moreover, the half-maximal inhibitory concentration (IC50) in data set [3] amounted to 0.18 µM; in data set [4] it was 14 µM; in data set [5] it was 0.028 µM.

`O=C(O)/C(O)=C/C(=O)c1c[nH]c2cc(Cl)ccc2c1=O`: the IC50 was 17 µM in data set [3], more than 333 µM in data set [4] and 37 µM in data set [5].

For the molecule `CCOC(=O)/C(O)=C/C(=O)c1cn(Cc2ccc(F)cc2)c2c(Cl)cccc2c1=O`, the outcome in data set [1] was Active. Also, in data set [2], the CC50 was more than 200 µM. For the same molecule, the IC50 in data set [3] is 5.2 µM; in data set [4], more than 333 µM; in data set [5], 32 µM.

As for `O=C(O)/C(O)=C/C(=O)c1cn(Cc2ccc(F)cc2)c2c(F)cccc2c1=O`, the result in data set [1] was Active. The molecule also showed a half-maximal cytotoxic concentration (CC50) in data set [2] of more than 200 µM. Also, the IC50 in data set [3] amounted to 0.16 µM; in data set [4], 16 µM; in data set [5], 0.018 µM.

The molecule `O=C(O)C(=O)CC(=O)c1cccn1Cc1ccc(F)cc1` showed an EC50 in data set [6] of 1 µM.

As to `O=C(O)/C(O)=C/C(=O)c1cn(Cc2ccc(F)cc2)c2cc(F)ccc2c1=O`, the outcome in data set [1] was Active. The same molecule displayed a CC50 in data set [2] of more than 200 µM. Moreover, the concentration for half-maximal inhibition (IC50) in data set [3] was 0.05 µM; in data set [4], 4.4 µM; in data set [5] it was 0.02 µM.

`CCOC(=O)/C(O)=C/C(=O)c1cn(Cc2ccc(F)cc2)c2c(F)cccc2c1=O`: the outcome in data set [1] was Active. In data set [2], the half-maximal cytotoxic concentration (CC50) was more than 200 µM. In addition, the concentration for half-maximal inhibition (IC50) in data set [3] is 5.2 µM; in data set [4] it was more than 333 µM; in data set [5] it was 26 µM.

For the molecule `O=C(O)/C(O)=C/C(=O)c1cn(Cc2ccc(F)cc2)c2ccccc2c1=O`, the outcome in data set [1] was Active. In addition, in data set [2], the CC50 was more than 200 µM. Also, the IC50 in data set [3] turned out to be 0.06 µM; in data set [4], 14 µM; in data set [5], 0.04 µM.
